Experimental data: the NIST ThermoML archive (doi:10.1016/j.tca.2007.03.018)
± gives the expanded uncertainty stated by the source.

Tests used:
[1] = molar heat capacity at constant pressure; details: 101.33 kPa
[2] = for molar entropy: 101.33 kPa; for vapor or sublimation pressure: Knudsen effusion

C1C2CC3CC1CC(C14CC5CC(CC(C5)C1)C4)(C2)C3 [1,1'-biadamantane]
Details	molar entropy, [2] [J/K/mol]	molar heat capacity at constant pressure, [1] [J/K/mol]	vapor or sublimation pressure, [2] [kPa]
5 K, Crystal 3, Small (less than 1 g) adiabatic calorimetry	0.123 ± 0.026	0.4412 ± 0.024	–
10 K, Crystal 3, Small (less than 1 g) adiabatic calorimetry	1.008 ± 0.049	3.035 ± 0.076	–
20 K, Crystal 3, Small (less than 1 g) adiabatic calorimetry	6.713 ± 0.19	16 ± 0.26	–
30 K, Crystal 3, Small (less than 1 g) adiabatic calorimetry	16.03 ± 0.37	30.58 ± 0.32	–
40 K, Crystal 3, Small (less than 1 g) adiabatic calorimetry	26.5 ± 0.47	42.31 ± 0.28	–
50 K, Crystal 3, Small (less than 1 g) adiabatic calorimetry	37.01 ± 0.56	52.05 ± 0.33	–
60 K, Crystal 3, Small (less than 1 g) adiabatic calorimetry	47.28 ± 0.64	60.95 ± 0.37	–
70 K, Crystal 3, Small (less than 1 g) adiabatic calorimetry	57.32 ± 0.71	69.55 ± 0.42	–
80 K, Crystal 3, Small (less than 1 g) adiabatic calorimetry	67.2 ± 0.79	78.54 ± 0.47	–
90 K, Crystal 3, Small (less than 1 g) adiabatic calorimetry	76.98 ± 0.89	87.69 ± 0.52	–
100 K, Crystal 3, Small (less than 1 g) adiabatic calorimetry	86.7 ± 0.96	97.04 ± 0.57	–
110 K, Crystal 3, Small (less than 1 g) adiabatic calorimetry	96.4 ± 1	106.6 ± 0.6	–
120 K, Crystal 3, Small (less than 1 g) adiabatic calorimetry	106.1 ± 1.1	116.4 ± 0.7	–
130 K, Crystal 3, Small (less than 1 g) adiabatic calorimetry	115.8 ± 1.1	126.3 ± 0.7	–
140 K, Crystal 3, Small (less than 1 g) adiabatic calorimetry	125.5 ± 1.3	136.4 ± 0.7	–
150 K, Crystal 3, Small (less than 1 g) adiabatic calorimetry	135.2 ± 1.3	146.7 ± 0.8	–
160 K, Crystal 3, Small (less than 1 g) adiabatic calorimetry	145.1 ± 1.3	157.3 ± 0.8	–
170 K, Crystal 3, Small (less than 1 g) adiabatic calorimetry	155 ± 1.5	168.2 ± 0.9	–
180 K, Crystal 3, Small (less than 1 g) adiabatic calorimetry	164.9 ± 1.5	179.3 ± 1	–
190 K, Crystal 3, Small (less than 1 g) adiabatic calorimetry	174.9 ± 1.7	190.7 ± 1.1	–
200 K, Crystal 3, Small (less than 1 g) adiabatic calorimetry	184.9 ± 1.7	202.7 ± 1.1	–
210 K, Crystal 3, Small (less than 1 g) adiabatic calorimetry	195.1 ± 1.7	214.7 ± 1.2	–
220 K, Crystal 3, Small (less than 1 g) adiabatic calorimetry	205.4 ± 1.9	227.1 ± 1.2	–
230 K, Crystal 3, Small (less than 1 g) adiabatic calorimetry	215.8 ± 1.9	240 ± 1.3	–
240 K, Crystal 3, Small (less than 1 g) adiabatic calorimetry	226.3 ± 2	253.4 ± 1.3	–
250 K, Crystal 3, Small (less than 1 g) adiabatic calorimetry	237 ± 2.1	267.7 ± 1.4	–
260 K, Crystal 3, Small (less than 1 g) adiabatic calorimetry	247.6 ± 2.2	281.1 ± 1.4	–
270 K, Crystal 3, Small (less than 1 g) adiabatic calorimetry	258.5 ± 2.2	295.3 ± 1.5	–
273.15 K, Crystal 3, Small (less than 1 g) adiabatic calorimetry	262.1 ± 2.2	299.8 ± 1.6	–
280 K, Crystal 3, Small (less than 1 g) adiabatic calorimetry	269.5 ± 2.3	309.6 ± 1.6	–
290 K, Crystal 3, Small (less than 1 g) adiabatic calorimetry	280.6 ± 2.4	324 ± 1.7	–
298.15 K, Crystal 3, Small (less than 1 g) adiabatic calorimetry	289.9 ± 2.4	335.3 ± 1.7	–
300 K, Crystal 3, Small (less than 1 g) adiabatic calorimetry	291.9 ± 2.4	338 ± 1.8	–
310 K, Crystal 3, Small (less than 1 g) adiabatic calorimetry	303.2 ± 2.6	352.8 ± 1.8	–
320 K, Crystal 3, Small (less than 1 g) adiabatic calorimetry	314.6 ± 2.6	366.5 ± 1.9	–
330 K, Crystal 3, Small (less than 1 g) adiabatic calorimetry	326.1 ± 2.8	378.2 ± 1.9	–
336.3 K, Crystal 2, Small (less than 1 g) adiabatic calorimetry	336.8 ± 2.9	385 ± 1.9	–
336.3 K, Crystal 3, Small (less than 1 g) adiabatic calorimetry	333.4 ± 2.8	385 ± 1.9	–
340 K, Crystal 2, Small (less than 1 g) adiabatic calorimetry	340 ± 2.9	389 ± 2	–
350 K, Crystal 2, Small (less than 1 g) adiabatic calorimetry	352.4 ± 2.9	400 ± 2	–
360 K, Crystal 2, Small (less than 1 g) adiabatic calorimetry	362.8 ± 3.1	412 ± 2	–
370 K, Crystal 2, Small (less than 1 g) adiabatic calorimetry	374.3 ± 3.1	424 ± 2	–
380 K, Crystal 2, Large sample (1 g) DSC	385.8 ± 9	437 ± 11	–
390 K, Crystal 2, Large sample (1 g) DSC	397.3 ± 9.2	450 ± 11	–
392.77 K, Crystal 2	–	–	0.0005447 ± 3.3e-05
398 K, Crystal 2	–	–	0.0008576 ± 5.3e-05
400 K, Crystal 2, Large sample (1 g) DSC	408.8 ± 9.5	463 ± 11	–
402.91 K, Crystal 2	–	–	0.001308 ± 8e-05
407.9 K, Crystal 2	–	–	0.001881 ± 0.00012
410 K, Crystal 2, Large sample (1 g) DSC	420.4 ± 9.8	477 ± 12	–
412.88 K, Crystal 2	–	–	0.002772 ± 0.00017
417.8 K, Crystal 2, Large sample (1 g) DSC	429.5 ± 10	487 ± 12	–
420 K, Crystal 2, Large sample (1 g) DSC	432.1 ± 10	491 ± 12	–
422.86 K, Crystal 2	–	–	0.006026 ± 0.00037
427.75 K, Crystal 2	–	–	0.00828 ± 0.00051
430 K, Crystal 2, Large sample (1 g) DSC	444 ± 10	505 ± 12	–
432.81 K, Crystal 2	–	–	0.01195 ± 0.00073
437.82 K, Crystal 2	–	–	0.01674 ± 0.001
440 K, Crystal 2, Large sample (1 g) DSC	456 ± 11	520 ± 12	–
442.66 K, Crystal 2	–	–	0.02466 ± 0.0015
450 K, Crystal 2, Large sample (1 g) DSC	467 ± 12	535 ± 13	–
460 K, Crystal 2, Large sample (1 g) DSC	479 ± 12	551 ± 13	–
470 K, Crystal 2, Large sample (1 g) DSC	491 ± 12	567 ± 14	–
480 K, Crystal 2, Large sample (1 g) DSC	503 ± 12	582 ± 15	–
490 K, Crystal 2, Large sample (1 g) DSC	516 ± 13	598 ± 15	–
500 K, Crystal 2, Large sample (1 g) DSC	528 ± 13	614 ± 15	–
509.6 K, Crystal 1, Large sample (1 g) DSC	542 ± 14	629 ± 16	–
509.6 K, Crystal 2, Large sample (1 g) DSC	540 ± 14	629 ± 16	–
510 K, Crystal 1, Large sample (1 g) DSC	543 ± 14	630 ± 16	–
520 K, Crystal 1, Large sample (1 g) DSC	555 ± 14	646 ± 16	–
530 K, Crystal 1, Large sample (1 g) DSC	568 ± 15	662 ± 16	–
535 K, Crystal 1, Large sample (1 g) DSC	574 ± 15	669 ± 16	–
540 K, Crystal 1, Large sample (1 g) DSC	580 ± 15	677 ± 17	–
545 K, Crystal 1, Large sample (1 g) DSC	586 ± 15	685 ± 17	–
550 K, Crystal 1, Large sample (1 g) DSC	593 ± 15	693 ± 17	–
555 K, Crystal 1, Large sample (1 g) DSC	599 ± 16	701 ± 17	–
560 K, Crystal 1, Large sample (1 g) DSC	605 ± 16	709 ± 17	–

[2]
Details	Triple point temperature [K]
Crystal 1, DTA	561 ± 1
Crystal 2, DTA	509.6 ± 0.6
Crystal 3	336.3 ± 0.3
